US9817000B2, “Method for identifying compounds that modulate a T2R taste receptor” (The Regents of the University of California, priority 1999, dated 2017)

Legend:
mT2R5 = target: T1, mT2R5 (Mus musculus, UniProt Q9JKT4); assay: FURA-2 [Ca2+]i imaging in HEK-293 cells expressing Gα15 and rho-mT2R5 (taster, DBA/2 allele); type: cell-based; conditions: for [Ca2+]i response (FURA-2): 1.5 μM cycloheximide
T1 construct: expressed in transfected cells; host or cells: modified HEK-293 cells (PEAKrapid) expressing Gα15; pEAK10 vector
T1 sequence (Q9JKT4 1-300): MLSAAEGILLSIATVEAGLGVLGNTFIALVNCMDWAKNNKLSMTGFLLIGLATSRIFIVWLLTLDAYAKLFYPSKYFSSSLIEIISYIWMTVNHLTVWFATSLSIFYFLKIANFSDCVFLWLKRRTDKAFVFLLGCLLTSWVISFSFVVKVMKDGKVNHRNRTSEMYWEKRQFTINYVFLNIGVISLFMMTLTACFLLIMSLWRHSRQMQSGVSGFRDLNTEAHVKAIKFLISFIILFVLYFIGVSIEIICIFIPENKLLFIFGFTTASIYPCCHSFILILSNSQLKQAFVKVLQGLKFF
Text: In this system, receptor activation leads to increases in intracellular calcium [Ca2+]i, which can be monitored at the single cell level using the FURA-2 calcium-indicator dye (Tsien et al., Cell Calcium 6:145-157 (1985)). To test and optimize Gα15 coupling, two different GPCRs, a Gαi-coupled μ-opioid receptor (Reisine, Neuropharm. 34:463-472 (1995)) and a Gαq-coupled mGluR1 receptor (Masu et al., Nature 349:760-765 (1991)), were used. Transfection of these receptors into HEK-293 cell produced robust, agonist-selective, and Gα15-dependent Ca^2+ responses (FIG. 1).
A number of studies have shown that many GPCRs, in particular sensory receptors, require specific “chaperones” for maturation and targeting through the secretory pathway (Baker et al., Embo J 13:4886-4895 (1994); Dwyer et al., Cell 93:455-466 (1998)). Recently, Krautwurst et al. (Cell 95:917-926 (1998)) generated chimeric receptors consisting of the first 20 amino acids of rhodopsin and various rodent olfactory receptors. These were targeted to the plasma membrane and functioned as odorant receptors in HEK-293 cells. To determine whether rhodopsin sequences can also help target T2Rs to the plasma membra, rhodopsin-T2R chimeras (rho-T2Rs) were constructed. […] Similar results were obtained with 11 human and 16 rodent T2Rs (see below). To further enhance the level of T2R expression, rho-T2Rs were placed under the control of a strong EF-1α promoter, and introduced as episomal plasmids into modified HEK-293 cells expressing Gα15 (pEAKrapid cells).
A bridge overlap PCR extension technique was used to generate rho-T2R chimeras, which contain the first 39 amino acids of bovine rhodopsin in frame with human and rodent T2R coding sequences (Mehta and Singh, Biotechniques 26:1082-1086 (1999). All receptors were cloned into a pEAK10 mammalian expression vector (Edge Biosystems, MD). Modified HEK-293 cells (PEAK^rapid cells; Edge BioSystems, MD) were grown and maintained at 37° C. in UltraCulture medium (Bio Whittaker) supplemented with 5% fetal bovine serum, 100 μg/ml Gentamycin sulphate (Fisher), 1 μg/ml Amphotericin B and 2 mM GlutaMax I (Lifetechnologies). For transfection, cells were seeded onto matrigel coated 24-well culture plates or 35 mm recording chambers. After 24 h at 37° C., cells were washed in OptiMEM medium (Lifetechnologies) and transfected using LipofectAMINE reagent (Lifetechnologies). Transfection efficiencies were estimated by co-transfection of a GFP reporter plasmid, and were typically >70%. Immunofluoresence staining, and activity assays were performed 36-48 h after transfection.
Transfected cells were washed once in Hank's balanced salt solution with 1 mM sodium pyruvate and 10 mM HEPES, pH 7.4 (assay buffer), and loaded with 2 μM FURA-2 AM (Molecular Probes) for 1 h at room temperature. The loading solution was removed and cells were incubated in 200 μl of assay buffer for 1 h to allow the cleavage of the AM ester. For most experiments, 24-well tissue culture plates containing cells expressing a single rho-T2R were stimulated with 200 μl of a 2× tastant solution (see next section). [Ca^2+]i changes were monitored using a Nikon Diaphot 200 microscope equipped with a 10×/0.5 fluor objective with the TILL imaging system (T.I.L.L Photonics GmbH). Acquisition and analysis of the fluorescence images used TILL-Vision software. Generally, [Ca^2+]i was measured for 80-120 s by sequentially illuminating cells for 200 ms at 340 nm and 380 nm and monitoring the fluorescence emission at 510 nm using a cooled CCD camera. The F340/F380 ratio was analyzed to measure [Ca^2+]i.
Kinetics of activation and deactivation were measured using a bath perfusion system. Cells were seeded onto a 150 μl microperfusion chamber, and test solutions were pressure-ejected with a picospritzer apparatus (General Valve, Inc.). Flow-rate was adjusted to ensure complete exchange of the bath solution within 4-5 s. […]

[1] = target: T2, mT2R5 coupling to gustducin (Mus musculus, UniProt Q9JKT4); assay: Tastant-induced GTPγS binding to gustducin with insect cell membranes containing rho-mT2R5; type: biochemical
T2 construct: infectious Bacmid containing rhodopsin tagged mT2R5 (DBA/2-allele) was produced using the Bac-to-Bac system; rhodopsin tag (rho); made in house; host or cells: insect larval cells infected with recombinant Bacmid (Bac-to-Bac baculovirus system); membrane preparation
T2 sequence (Q9JKT4 1-300): T1 sequence (Q9JKT4 1-300)
Description: To investigate the selectivity of T2R-G-protein coupling, mT2R5 was chosen for study because its activation by cycloheximide recapitulates mouse taste responses. Rho-tagged mT2R5 and gustducin were prepared using a baculovirus expression system. mT2R5-containing membranes were incubated with various purified G-proteins, including gustducin, and measured tastant-induced GTP-γS binding (Hoon et al., Biochem J 309:629-636 (1995)). Specifically, infectious Bacmid containing rhodopsin tagged mT2R5 (DBA/2-allele) was produced using the Bac-to-Bac system (Lifetechnologies, MD). Insect larval cells were infected for 60 h with recombinant Bacmid and membranes were prepared as described previously (Ryba and Tirindelli, J Biol Chem, 270:6757-6767 (1995)). Peripheral proteins were removed by treatment with 8 M urea and membranes were resuspended in 10 mM HEPES pH7.5, 1 mM EDTA and 1 mM DTT. The expression of rho-mT2R5 was assessed by Western blot using mAb B6-30 and quantitated by comparison with known amounts of rhodopsin. Approximately 300 pmol of rho-mT2R5 could be obtained from 2×10^8 infected cells. Gustducin and Gβ1γ8 heterodimers were isolated as described previously (Hoon et al., Biochem J 309:629-636 (1995); Ryba and Tirindelli, J Biol Chem, 270:6757-6767 (1995)). Receptor-catalyzed exchange of GDP for GTPγS on gustducin and other G-protein α-subunits was measured in the presence of 10 nM rho-mT2R5, 100 μM GDP, and 20 μM Gβ1γ8. All measurements were made at 15-minute time points, and reflect the initial rate of GTPγS binding.

[Ca2+]i response to tastant (mT2R5; 5 mM) | gustducin activation ([1]; 1 mM) | SMILES | EC50 (mT2R5) [µM] | response of cells expressing mT2R5 (mT2R5) | response to successive applications (mT2R5) | threshold of response (mT2R5) [µM] | [Ca2+]i response (FURA-2) (mT2R5; absence of Gα15) | [Ca2+]i response (FURA-2) (mT2R5; with Gα15) | specificity of [Ca2+]i response (mT2R5; 5 μM) | [Ca2+]i changes in cells lacking receptor or Gα15 (mT2R5; 5000-fold higher concentration) | cells responding (mT2R5; entire camera field) [%] | response to prolonged exposure (mT2R5; exposure >10 s) | response under superfusion (mT2R5; micromolar concentrations) | latency of response (mT2R5; microperfusion chamber) [s] | receptor activation by tastant pulses (mT2R5; multiple pulses of 2 μM) | Kd [1] [µM] | coupling of mT2R5 to gustducin [1] | gustducin activation ([1]; 300 μM)
not observed | not | CC[N+](CC)(CC(=O)Nc1c(C)cccc1C)Cc1ccccc1 [denatonium] | – | – | – | – | – | – | – | – | – | – | – | – | – | – | – | –
– | – | C[C@@H]1C[C@@H]([C@H](O)CC2CC(=O)NC(=O)C2)C(=O)[C@@H](C)C1 [cycloheximide] | 0.5 | specifically responded | significantly reduced responses | ~0.2 | No increase in [Ca2+]i | robust Gα15 dependent responses | highly specific | did not trigger [Ca2+]i changes | > 70 | adaptation | robust transient responses | < 1 | robust receptor activation | 14.8 | exquisite cycloheximide-dependent coupling | activate gustducin
